The values below come from patent publication US10765716B2, “Obesity treatment” (priority 2017, dated 2020).

Molecules are shown by their SMILES.

What all share (assay type): in vivo, male Wistar rats
Data set [1] deals with high-fat diet induced obese rats. Kind of data set: Therapeutic study: high-fat diet induced obese rats treated for 12 weeks (food intake, body weight, lipid profile, fasting blood glucose, leptin, insulin, histology). The note with it: for average food intake (in words): therapeutic study 12 weeks, Orlistat (TO), Sibutramine (TS), extract (TC1 and TC2). As for the experimental part: (§1) The crude extracts of C. latifolia were suspended in distilled water before its administration to the rat models. Orlistat and Sibutramine were used as standard drugs at doses of 100 mg/kg, and 5 mg/kg, respectively (dissolved in distilled water).
(§2) Thirty male Wistar rats (210-220 g) were obtained from the animal house facility of Dr. Panjwani Center for Molecular Medicine and Drug Research (ICCBS). All animals were kept under standard conditions of temperature and humidity with a 12 h light/dark cycle, approved by the Ethical Committee of International Center for Chemical and Biological Sciences (Protocol number: 2013-0001). After one week of acclimation period, rats were randomly divided into […]. The control group was fed with normal diet (D12450B, Research Diets, USA), whereas the other groups were fed high-fat diet (D12451, Research Diets, USA) for a period of 16-week. After 10 weeks, biochemical parameters were evaluated regularly to establish whether the model has developed the symptoms of metabolic syndrome. […]
(§3) Body weights were recorded weekly throughout the experiment. The food intake was calculated by using following formula, as described by Ghezzi et al, 2012: […]
(§4) Blood glucose, serum insulin, total cholesterol, triglycerides, HDL, LDL, very low density lipoproteins […], urea, creatinine, aspartate aminotransferase […], alkaline phosphatase (ALP), serum glutamic pyruvic transaminase (SGPT), and direct and total bilirubin were estimated. Fasting blood glucose levels were measured using glucometer (AccuChek Performa, Australia). Fasting insulin levels were quantified using ultra sensitive rat insulin ELISA kit (Crystal Chem. Downers Grove, USA). Insulin sensitivity was evaluated using Homeostatic Model Assessment (HOMA). Serum total cholesterol, triglycerides, HDL, LDL, VLDL, urea, creatinine, AST, ALP, SGPT, and direct and total bilirubin were analyzed using automatic analyzer (Hitachi, Roche Diagnostics 902, Tokyo, Japan).

Data set [2] has as its system high fat diet rats. Kind of data set: Preventive study: high fat diet rats given extract or standard drugs for 8 weeks (food intake, body weight, lipid profile, fasting blood glucose, liver histology). The settings on record: preventive study 8 weeks. As for the experimental part: as §1, §2, §3, §4
The test system of data set [3] is high-fat diet induced obese rats. Kind of data set: Renal and liver toxicity assessment after 12 weeks of treatment period. As for the experimental part: Whereas for therapeutic studies the animal groups were as follow: Group 1 (TA), Control; animals in this group received LFD, and distilled water Group 2 (TC), Pathological control; animals in this group received HFD, and distilled water. Groups 3 (TO), High fat diet induced obese animals in this group received standard drug Orlistat (100 mg/kg/day). Group 4 (TS): High fat diet induced obese animals in this group received standard drug Sibutramine (5 mg/kg/day), Group 5 (TC1): High fat diet induced obese animals in this group received C. latifolia extract (150 mg/kg/day). Group 6 (FC2) High fat diet induced obese animals in this group received C. latifolia extract (300 mg/kg/day). […]
Blood glucose, serum insulin, total cholesterol, triglycerides, HDL, LDL, very low density lipoproteins […], urea, creatinine, aspartate aminotransferase […], alkaline phosphatase (ALP), serum glutamic pyruvic transaminase (SGPT), and direct and total bilirubin were estimated. Fasting blood glucose levels were measured using glucometer (AccuChek Performa, Australia). Fasting insulin levels were quantified using ultra sensitive rat insulin ELISA kit (Crystal Chem. Downers Grove, USA). Insulin sensitivity was evaluated using Homeostatic Model Assessment (HOMA). […]

For the compound `CCCCCCCCCCC[C@@H](C[C@@H]1OC(=O)[C@H]1CCCCCC)OC(=O)[C@H](CC(C)C)NC=O` [Orlistat], the “average food intake (in words)” value in data set [1] is reported as “decrease”. The “FBG (fasting blood glucose)” value in data set [2] (100 mg/kg (PO)) amounted to 79 ± 1.04 mg/dL. The compound also registered a Direct bilirubin in data set [3] (rat, in vivo, 100 mg/kg) of 0.06 ± 0.008 mg/dL.

On to `CC(C)CC(N(C)C)C1(c2ccc(Cl)cc2)CCC1` (centres unmarked) [Sibutramine], for which the “FBG (fasting blood glucose)” value stood at 80 ± 0.12 mg/dL in data set [1] (after 12 weeks of treatment, 5 mg/kg (TS)) and 76 ± 2.12 mg/dL in data set [2] (5 mg/kg (PS)). Also, in data set [1], the “average food intake (in words)” value is given as “decrease”. This compound gave a Triglyceride in data set [2] (serum, 5 mg/kg (PS)) of 51 ± 0.19 mg/dL. The compound further came in with a Direct bilirubin in data set [3] (liver toxicity, after 12 weeks of treatment, 5 mg/kg (TS)) of 0.03 ± 0.004 mg/dL.
